Assay results as given in PubChem BioAssay (NCI).
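Growth conditions: 96-well plates. Treatment: test compound, 48 hours, 5 concentrations. Analysis: linear interpolation between bracketing concentrations; unreached endpoints set to highest concentration. TGI denotes the concentration required for complete inhibition of growth.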

What was measured:
Assay in all cases: DTP human tumour cell line panel, 48 h
SN12C renal = test system: SN12C renal
K-562 leukemia = test system: K-562 leukemia
HOP-92 NSCLC = test system: HOP-92 NSCLC
ACHN renal = test system: ACHN renal
NCI-H522 lung = test system: NCI-H522 lung
MOLT-4 leukemia = test system: MOLT-4 leukemia
SNB-19 CNS = test system: SNB-19 CNS
SF-268 CNS = test system: SF-268 CNS
HCT-116 colon = test system: HCT-116 colon
IGROV1 ovarian = test system: IGROV1 ovarian
SK-OV-3 ovarian = test system: SK-OV-3 ovarian
CAKI-1 renal = test system: CAKI-1 renal
UO-31 renal = test system: UO-31 renal
MDA-MB-435 = test system: MDA-MB-435
SNB-75 CNS = test system: SNB-75 CNS
NCI/ADR-RES ovarian = test system: NCI/ADR-RES ovarian

| SMILES | TGI (SN12C renal) | TGI (K-562 leukemia) | TGI (HOP-92 NSCLC) | TGI (ACHN renal) | TGI (NCI-H522 lung) | TGI (MOLT-4 leukemia) | TGI (SNB-19 CNS) | TGI (SF-268 CNS) | TGI (HCT-116 colon) | TGI (IGROV1 ovarian) | TGI (SK-OV-3 ovarian) | TGI (CAKI-1 renal) | TGI (UO-31 renal) | TGI (MDA-MB-435) | TGI (SNB-75 CNS) | TGI (NCI/ADR-RES ovarian) |
| --- | --- | --- | --- | --- | --- | --- | --- | --- | --- | --- | --- | --- | --- | --- | --- | --- |
| CCC12CCCN(Cc3ccccc3)C1c1c(n(C)c3ccccc13)C(C(=O)OC)C2 (stereo not drawn) | > 239 µM | > 239 µM | > 239 µM | > 239 µM | 127 µM | > 239 µM | > 239 µM | > 239 µM | > 239 µM | > 239 µM | > 239 µM | > 239 µM |  |  |  |  |
| COC(=O)CNS(=O)(=O)c1ccc(-c2c3nc(c(-c4ccc(S(=O)(=O)NCC(=O)OC)cc4)c4ccc([nH]4)c(-c4ccc(S(=O)(=O)NCC(=O)OC)cc4)c4nc(c(-c5ccc(S(=O)(=O)NCC(=O)OC)cc5)c5ccc2[nH]5)C=C4)C=C3)cc1 | > 100 µM | > 100 µM |  | > 100 µM | > 100 µM | > 100 µM | > 100 µM | > 100 µM | > 100 µM | > 100 µM | > 100 µM | > 100 µM | > 100 µM | > 100 µM | > 100 µM | > 100 µM |
| CC1CN(c2ccc(Cl)cc2)CC(C)OC(=O)O1 (stereo not drawn) | > 100 µM | > 100 µM | > 100 µM | > 100 µM | > 100 µM |  | > 100 µM | > 100 µM |  | > 100 µM | > 100 µM | > 100 µM | > 100 µM |  | > 100 µM |  |
| Cc1cn(C2CC(O)C(COC(=O)NCCC(F)(F)C(F)(F)C(F)(F)C(F)(F)F)O2)c(=O)[nH]c1=O (stereo not drawn) | > 100 µM | > 100 µM | > 100 µM | > 100 µM | > 100 µM | > 100 µM | > 100 µM | > 100 µM | > 100 µM | > 100 µM | > 100 µM | > 100 µM | > 100 µM | > 100 µM | > 100 µM |  |
| CCOC(=O)/C=C/n1c2ccccc2c(=O)c2ccccc21 | > 100 µM | > 100 µM |  | > 100 µM | > 100 µM | > 100 µM | > 100 µM | > 100 µM | > 100 µM | > 100 µM |  | > 100 µM | > 100 µM |  |  |  |
| O=C1CSC(c2ccc([N+](=O)[O-])cc2)N1c1ccc(-n2c(-c3ccccc3)nc3ccccc3c2=O)cc1 (stereo not drawn) | > 100 µM | > 100 µM |  | > 100 µM | > 100 µM | > 100 µM | > 100 µM | > 100 µM | > 100 µM | > 100 µM | > 100 µM | > 100 µM | 29.3 µM | > 100 µM |  | > 100 µM |
| CN(C)CCNC(=O)c1cc([N+](=O)[O-])cc2c1Oc1ccccc1O2 | > 100 µM | > 100 µM |  | > 100 µM | > 100 µM | 51.1 µM |  | > 100 µM | > 100 µM | > 100 µM |  | > 100 µM | 33.2 µM | > 100 µM | 38.9 µM | > 100 µM |
| Cc1cccc(N(C(=O)Nc2ccc(Cl)c(Cl)c2)C2=NCC(C)S2)c1 (stereo not drawn) | > 100 µM | > 100 µM | > 100 µM | > 100 µM |  | > 100 µM | > 100 µM | > 100 µM | > 100 µM | > 100 µM | > 100 µM | > 100 µM | > 100 µM |  | > 100 µM | > 100 µM |
| O=c1c2nc3ccccc3c(=O)n2ncn1-c1ccccc1Cl | > 100 µM | > 100 µM | > 100 µM | > 100 µM | > 100 µM |  | > 100 µM | > 100 µM | > 100 µM | > 100 µM | > 100 µM | > 100 µM | > 100 µM | > 100 µM | > 100 µM |  |
| N#C/C(c1nc2ccccc2[nH]1)=c1\s/c(=C/c2ccc(Cl)cc2)c(=O)n1-c1ccccc1 | > 100 µM | > 100 µM | > 100 µM | > 100 µM | > 100 µM | > 100 µM | > 100 µM | > 100 µM | > 100 µM | > 100 µM | > 100 µM | > 100 µM | > 100 µM |  | > 100 µM |  |
| O=C1NC(=S)N/C1=C\c1ccc(Br)s1 | > 100 µM | > 100 µM | > 100 µM | > 100 µM | > 100 µM | > 100 µM | > 100 µM | > 100 µM | > 100 µM | > 100 µM | > 100 µM | > 100 µM | > 100 µM | > 100 µM |  |  |
| CCn1c(SCC(=O)NNC(=S)Nc2ccc([N+](=O)[O-])cc2)nc2ccccc2c1=O | > 100 µM | > 100 µM |  | > 100 µM | > 100 µM | 65.8 µM | > 100 µM | > 100 µM | > 100 µM | > 100 µM | > 100 µM | > 100 µM | > 100 µM | > 100 µM | > 100 µM | > 100 µM |
| COc1cc(CO)c(CC(=O)NCCCc2ccccc2)cc1OC | > 100 µM | > 100 µM | > 100 µM | > 100 µM |  | > 100 µM | > 100 µM |  | > 100 µM | > 100 µM |  | > 100 µM | > 100 µM | > 100 µM | > 100 µM | > 100 µM |
| CCOC(=O)c1c(N)sc2c1C(C)(C(=O)OCC)CC2 (stereo not drawn) | > 100 µM | > 100 µM | > 100 µM | > 100 µM |  | > 100 µM | > 100 µM |  | > 100 µM | > 100 µM |  |  | > 100 µM |  | > 100 µM |  |
| Cc1ccc(NC2=CC(=O)C(NO)c3ccccc32)cc1 (stereo not drawn) | 10.5 µM |  | 8.25 µM | 12.5 µM |  | 6.23 µM | 11.5 µM | 17.7 µM | 8.77 µM | 4.6 µM | 46.6 µM | 6.73 µM | 12.2 µM |  | 22.2 µM | 5.81 µM |
| CC(C)CC(NC(=O)OC(C)(C)C)C(=O)Nc1ccc(Nc2nc(F)nc(-c3c4ccccc4c4n3CCS4)n2)cc1 (stereo not drawn) | 43.5 µM | 57.8 µM | 34.4 µM | 39.2 µM | 29.2 µM | 39 µM | 36.9 µM | 61.3 µM | 46 µM | 42.3 µM | 32.9 µM | 33.1 µM | 34.8 µM |  | 38.2 µM |  |
